What all share (assay): growth of human tumour cells (NCI), 48 h
Test [1] has as its system 786-0 renal.
For test [2], the system named is A549 NSCLC.
Test [3] relates to BT-549 breast.
Test [4] concerns COLO 205 colon.
Test [5] relates to HCT-116 colon.
For test [6], the system named is HOP-62 NSCLC.
Test [7] has as its system HT29 colon.
In test [8] the test system is MALME-3M melanoma.
The subject of test [9] is MDA-MB-435.
In test [10] the test system is MOLT-4 leukemia.
The test system of test [11] is NCI/ADR-RES ovarian.
For test [12], the system named is SNB-19 CNS.
Test [13] concerns T-47D breast.

In PubChem BioAssay (NCI) one finds TGI data, which are given here for eleven compounds.

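All cell lines were grown in 96-well plates and treated with compound for 48 hours. Definition used: TGI = concentration required for complete inhibition of growth.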

As to `COc1ccc(S(=O)(=O)n2c3c(c4ccccc42)[C@@H]2[C@@H](CCCN2C(=O)CS(=O)c2ccc(C)cc2)[C@H](Cl)C3)cc1` (stereo partly specified), the TGI in test [1], in test [2], in test [3], in test [4], in [5] and in test [6] was > 100 µM throughout. In addition, the TGI in test [7], in [8], in test [9], in [10], in [11] and in [12] was > 100 µM throughout. Further, the TGI in [13] was > 100 µM.
On to `O=C(O)Cc1ccc([N+](=O)[O-])cc1[N+](=O)[O-]`, for which the TGI in test [1], in test [2], in test [3], in test [4], in [5] and in test [6] was > 100 µM in each case. In addition, the TGI in test [7], in test [8], in [9], in test [10], in test [11] and in [12] was > 100 µM in each case. The TGI in test [13] is > 100 µM.
Take `O=C(C(=O)n1ccc2ccccc21)n1ccc2ccccc21`: the TGI in [1], in test [2], in test [3], in [4], in [5] and in test [6] was > 100 µM in each case. Besides, the TGI in test [7], in [8], in test [9], in test [10], in test [11] and in test [12] was > 100 µM throughout. Also, in [13], the TGI is > 100 µM.
For `CC(N)/C(N)=N/O` (stereo unspecified), the TGI in test [1], in test [2], in test [3], in test [4], in test [5] and in [6] was > 100 µM throughout. Moreover, the TGI in test [7], in test [8], in test [9], in test [11], in test [12] and in [13] was > 100 µM throughout.
In the case of `COc1ccc(C(SCCO)(c2ccccc2)c2ccc(OC)cc2)cc1`, the TGI in test [1] turned out to be 29.1 µM; in [2], 27.3 µM; in test [3], 36.8 µM; in test [4], 36.2 µM; in test [5], 22.2 µM; in test [6] it was 42 µM. The TGI worked out at 29.1 µM in [7]; 31.4 µM in [8]; 20.5 µM in test [9]; 50.2 µM in test [10]; 34.7 µM in [11]; 22.8 µM in test [12]. The TGI in test [13] was determined as 34.1 µM.
In the case of `CSC(=O)c1sc(SC)[n+](-c2ccccc2)c1O`, the TGI in test [1] was 32.7 µM; in [2], > 100 µM; in test [3] it was 29.4 µM; in test [4], > 100 µM; in test [5] it was 32.6 µM; in test [6], 32.1 µM. Also, the TGI is 46.5 µM in test [7]; 56.6 µM in [8]; 35.5 µM in test [9]; 41.4 µM in test [10]; > 100 µM in test [11]; 35.7 µM in test [12]. The compound also yielded a TGI in [13] of 29.5 µM.
On to `CCOC(=O)c1cn2c(n1)sc1cc(F)ccc12`, for which the TGI in test [1], in test [2], in [3], in [4], in test [5] and in test [6] was > 100 µM throughout. Moreover, the TGI in [7], in test [8], in test [9], in test [10], in test [11] and in [12] was > 100 µM in each case. Also, the TGI in test [13] is > 100 µM.
On to `CC(=O)CC1CCC(=O)/C=C/C(=O)OC(CC(C)=O)CCC(=O)/C=C/C(=O)O1` (stereo unspecified), for which the TGI turned out to be 10.6 µM in test [1]; 43 µM in test [2]; 6.7 µM in test [3]; 3.4 µM in [4]; 9.08 µM in test [5]; 42.8 µM in test [6]. In addition, the TGI was 31.6 µM in test [7]; 6.72 µM in [8]; 32 µM in test [9]; > 100 µM in test [10]; 53.2 µM in test [11]; 43.4 µM in test [12]. Moreover, the TGI in test [13] worked out at 6.79 µM.
`Oc1ccc(NCn2c(=S)sc3ccccc32)cc1`: the TGI in [2], in test [3], in [4], in test [5], in test [6] and in test [7] was > 100 µM each time. Also, the TGI in [8], in [9], in [10], in test [11], in test [12] and in test [13] was > 100 µM throughout.
Take `C[N+]12C=CC=C1C(N1CCCC1)c1scc(-c3ccc(Br)cc3)c12` (stereo unspecified): the TGI in test [1] was > 100 µM; in test [2] it was > 100 µM; in test [3], 17.7 µM; in test [4], 39.8 µM; in test [5], > 100 µM; in test [6], 98.2 µM. Further, the TGI in test [7] was > 100 µM; in test [8] it was 25.4 µM; in [9], 76.9 µM; in test [10] it was > 65.3 µM; in test [11], > 100 µM; in test [12], 39.2 µM. Further, the TGI in test [13] came to 61.8 µM.
As for `O=c1c(F)cn(Cc2c(Cl)cccc2Cl)c(=O)n1Cc1c(Cl)cccc1Cl`, the TGI in [1], in test [2], in test [3], in test [4], in test [5] and in test [6] was > 31.6 µM throughout. In addition, the TGI in test [7] was > 31.6 µM; in test [8], > 31.6 µM; in [9] it was > 31.6 µM; in test [10], > 31.6 µM; in test [11], > 31.6 µM; in [12], > 100 µM. In addition, in test [13], the TGI was > 31.6 µM.
